This note sets out measurements from US20090016959A1, “Delivery of antibodies to the central nervous system” (priority 2005, published 2009).

Residues, ends and D or L forms follow the SMILES beside them.

Data set [1] has as its system in vitro model of the blood brain barrier. As to the kind of experiment: Transcytosis capacity across the in vitro BBB model (Pe). It is filed as in vitro ADME, bovine. The protocol: (§1) This BBCEC medium was changed three times a week.
Transcytosis capacity of Aprotinin-Paclitaxel conjugate was determined and is reported below in Table 5.

Data set [2] has as its system bovine brain capillary endothelial cells. As to the kind of experiment: In vitro BBB model, first level of selection: peptides in lower chamber visualized by Coomassie blue. The class given is in vitro ADME. Conditions: first level of screening; 90 minutes at 37° C.
Excerpt: as §1
The medium was changed twice a week.

Data set [3] has the same test system. As to the kind of experiment: In vitro BBB model, second screening level with iodinated peptides (cpm ratios). The class given is in vitro ADME. The protocol: as §1
Two iodo-beads were used for each protein.
Results were expressed as cpm ratios. […] The ratio between the number of [^125I]-peptide found in the bottom chamber of filters covered with or without endothelial cells was also calculated (+cells/−cells).

Turning to aprotinin, in data set [1], the “Transcytosis (Pe 10^−3 cm/min)” value was 0.2 10^−3 cm/min.

With `C[C@@H](O)[C@H](NC(=O)[C@H](CCCCN)NC(=O)[C@H](Cc1ccccc1)NC(=O)[C@H](CC(N)=O)NC(=O)[C@H](CC(N)=O)NC(=O)[C@H](CCCNC(=N)N)NC(=O)[C@H](CCCCN)NC(=O)CNC(=O)[C@H](CCCNC(=N)N)NC(=O)[C@H](CS)NC(=O)[C@H](CS)NC(=O)CNC(=O)[C@H](Cc1ccc(O)cc1)NC(=O)[C@H](Cc1ccccc1)NC(=O)[C@H](Cc1ccccc1)NC(=O)[C@@H](NC(=O)[C@@H](N)CS)[C@@H](C)O)C(=O)N[C@@H](CCC(=O)O)C(=O)N[C@@H](CCC(=O)O)C(=O)N[C@@H](Cc1ccc(O)cc1)C(=O)O` [Peptide 71] (H-CTFFYGCCRGKRNNFKTEEY-OH; N-terminus and C-terminus assumed), the “peptides detected in the lower side of the chambers by Coomassie blue staining” value in data set [2] is “detected in the lower side of the chambers”. Further, in data set [3], the “Ratios −cells/initial” value came out at 0.072. Besides, the “Ratios +cells/−cells” value in data set [3] ([125I]-peptide in bottom chamber of filters with versus without endothelial cells) is listed as 0.37. In data set [3] ([125I]-peptide, cpm in bottom chamber / total cpm added, filter covered with endothelial cells, 90 minutes at 37° C), the “Ratios +cells/initial” value came out at 0.027.
